According to patent publication EP4473972A1, “COMBINATIONS COMPRISING AN ATR INHIBITOR WITH SYNERGISTIC EFFECT AGAINST GLIOMAS” (Eberhard-Karls-Universität Tübingen, priority 2023, dated 2024):

Experiments:
LN229 and LNZ308 cells = test: DigiWest Multiplex Protein Analysis, across both cell lines; format: cell-based, human; conditions: 72 h
Experimental: After 72 h of AZD6738 treatment, the inventors detached and counted the cells and subsequently snap froze them in liquid nitrogen. For protein preparation, they kept the cells on ice and added 20-30 µL of lysis buffer (LDS Lysis Buffer (Life Technologies, Carlsbad, CA, USA), supplemented with reducing agent (Thermo Fisher Scientific, Waltham, MA, USA) and protease- (Roche Diagnostics GmbH, Mannheim, Germany) and phosphatase-inhibitor (Roche)). Proteins were denatured by heating to 95°C for 10 min before the lysates were transferred to QiaShredder Eppendorf tubes (Eppendorf, Hamburg, Germany). After centrifugation (16,000g, 5 min, RT), eluates were stored at -80°C until further use. Protein quantification was performed using in-gel staining. 1 µL of each original lysate was diluted 1:10 (v/v) in lysis buffer. The respective aliquots were denatured for 10 mins at 70°C and 10 µL were run in a NuPAGE 4-12% Bis-Tris precast gel (Thermo Fisher Scientific) according to the manufacturer's instructions. The gel was washed with water and proteins were stained with BlueBandit (VWR, Darmstadt, Germany) for 1 h. The gel was de-stained over night with ddH2O before detection on a LI-COR (LI-COR, Bad Homburg, Germany) instrument. Analysis and protein quantification was performed using ImageStudio.
The DigiWest analysis was performed as described in the art. In brief, the inventors loaded 10 µg of cellular protein on an SDS-polyacrylamide gel and size-separated them using the commercial NuPAGE system (Life Technologies). Size-separated proteins were blotted onto a PVDF membrane and biotinylated on the membrane using NHS-PEG12-Biotin (50 µM) in PBST for 1 h. After drying of the membrane, the samples lanes were cut into 96 strips of 0.5 mm width using an automated cutting plotter (Silhouette America, West Orem, UT, USA) each corresponding to a defined molecular weight fraction. Each of the strips was placed in one well of a 96-well plate and 10 µl elution buffer (8 M urea, 1% Triton-X100 in 100 mM Tris-HCl pH 9.5) was added. The eluted proteins were diluted with 90 µl of dilution buffer (5% BSA in PBS, 0.02% sodium azide, 0.05% Tween-20) and each of the protein fractions was incubated with 1 distinct magnetic color-coded bead population (Luminex, Austin, USA) coated with neutravidin. The biotinylated proteins bind to the neutravidin beads such that each bead color represents proteins of one specific molecular weight fraction. All 96 protein loaded bead populations were mixed resulting in reconstitution of the original lane. […] Beads were washed twice prior to readout on a Luminex FlexMAP 3D.
For quantification of the antibody specific signals, we used the DigiWest Analyzer software; it automatically identifies peaks of appropriate molecular weight and calculates the peak area. […]

[1] = after continuous dosing; cited from earlier work
LN229-GFP cells = test: Zebrafish embryo xenotransplant, tumor area; format: in vivo, wildtype zebrafish embryos; conditions: monotherapy, 48 h of treatment; not significant as compared to the DMSO control
Experimental: The inventors used zebrafish wildtype (wt) TE embryos younger than 5 days post-fertilization (dpf). […] Labelled cells were suspended in PBS at 2*10^5 cells/µL and approx. 1 nL cell suspension was injected into the midbrain region of 24 hpf embryos. The inventors incubated the embryos at 28°C for 1 h and afterwards divided them into treatment groups. Only successfully transplanted embryos were used for further experiments. Then, the inventors applied the treatments as indicated in the respective figures and incubated that for 48 h at 35°C. For evaluation of tumor size, they imaged embryos on a Nikon Stereomicroscope (SMZ18) with the NIS Element software. The inventors assessed the tumor surface areas using Imaris (version 9.2.0).

[2] = test system: patient-derived glioblastoma microtumor models (PDM); test: Patient derived microtumors (PDM) viability, RealTime-Glo MT Cell Viability Assay; format: cell-based; conditions: patient-derived microtumors (PDMs), 72 h
Experimental: PDMs were extracted from surgically resected, residual glioblastoma tissue as is known to the skilled person. The inventors treated the PDMs with indicated drug concentrations for 72 h and determined cell viability using RealTime-Glo MT Cell Viability Assay (Promega, Madison, Wl, US). Luminescence assay signal was measured using a multimode microplate reader (Tecan, Männedorf, Switzerland). Obtained luminescence units were background corrected and plotted as dose response curves using GraphPad Prism 9 software. The use of residual tissue after tumor resections was approved by the ethical board of the University Hospital Tübingen.

[3] = test system: primary cultures (TUE-PC1-6); test: Viability of patient-derived primary cultures; format: cell-based; conditions: six primary cultures (TUE-PC1-6), 72 h
Excerpt: Primary tumor tissue was obtained from fresh residual material upon resection at the Department of Neurosurgery, University Hospital Tübingen. The inventors cut the tissue in small pieces, washed it using Hanks Balanced Salt Solution (HBSS) (Gibco, Carlsbad, CA, US) and digested it by collagenase and dispase (Roche, Basel, CH). To remove any remaining erythrocytes, they used red blood cell lysis buffer (Sigma Aldrich, St. Louis, MO, US). The inventors then cultured the cells as GS cells in Neurobasal®-A medium. They first evaluated AZD6738 sensitivity of each primary culture and selected two concentrations. […] To evaluate combination treatment analyses, the inventors leveraged the Bliss independence Criterion.
The inventors seeded 5,000 or 10,000 cells, respectively, on day one, treated the next day in serum-free medium and incubated for up to 72 h. Subsequently, they measured cell viability using CellTiterBlue reagent (Promega, Madison, WI, US) according to manufacturer's instructions with a GloMax (Promega, Madison, Wl, US). The inventors normalized measurements to untreated cells.

## C[C@@H]1COCCN1c1cc(C2([S@](C)(=N)=O)CC2)nc(-c2cc[nH]c3nccc2-3)n1 [AZD6738, ceralasertib]
LN229 and LNZ308 cells; across both cell lines
  NF-κB: significant upregulation
  markers for ATR target engagement such as pATR, Chk2, and Ku80: significant reduction
LN229 and LNZ308 cells; both cell lines
  Cleaved PARP: upregulated
  pH2A.X: Upregulation
[1]
  adverse events: bone marrow suppression
LN229-GFP cells
  tumor area: modest decrease
[2]
  cell viability: dose-dependent reduction
[3]
  cell viability: dose-dependent reduction
